In patent US10154673B2, “Method of removing lactose from a solution” (Stellenbosch University, priority 2014, dated 2018):
pKi: −log10 of the molar value.

Experiments:
[1] = Partition HPLC analysis of the 14C lactose binding assay; settings: for hydrolysis of lactose during the binding experiment: binding assay supernatant, glucose peak at 4 min
Experimental: […] The immobilised β-gal was then removed from the ^14C lactose solution with a magnet. The original 0.2 nmol C14 solution and the residual supernatant from the binding experiment were analysed with a scintillation counter.
All HPLC analyses were carried out using a Carbohydrate Analysis column (Waters (WAT084038)) and a Radiomatic “Flo-one beta” A-100 radioactive flow detector at ambient temperature. An isochratic mixture of 20:80 water:acetonitrile was used as mobile phase at a flow rate of 2 ml/min. Scintillation fluid was pumped at 6 ml/min for radioactive detection. Retention times of ^14C glucose and ^14C lactose standards were determined separately. This was followed by analysis of the residual supernatant and original ^14C lactose solution from the lactose binding assay.

[2] = Radioactive lactose binding assay (scintillation counting); settings: 0.2 nmol β-gal/mg beads, 0.2 nmol 14C lactose, 5 min
Experimental: Immobilised β-gal (Wildtype and E537D mutant) (0.2 nmol β-gal/mg beads) was incubated with 0.2 nmol ^14C lactose in buffer (500 mM NaPO4, 300 mM NaCl, 5 mM sodium metabisulphate, 0.2% tween20, pH 8) for 5 min. The immobilised β-gal was then removed from the ^14C lactose solution with a magnet. The original 0.2 nmol C14 solution and the residual supernatant from the binding experiment were analysed with a scintillation counter.

[3] = ONPG activity assay of purified free β-gal; assay type: biochemical; settings: for Vmax / Km: free enzyme
Experimental: (§1) Purified β-gal was assayed using a colorimetric activity assay. Both enzymes were assayed at varying substrate concentrations. The assay took place in phosphate buffer (93 mM Sodium phosphate, 1 mM MgCl2, 112 mM β-mercaptoethanol, pH 7.3) with varying amounts of substrate concentration. The assay was performed in a BioTek® PowerWave 340 spectrophotometer at 37° C. for 5 min with a reading taken every 5 s. The buffers were preincubated at 37° C. for 30 min prior to the assay.
The activity needed to be determined for both the wildtype and E537D mutant β-gal prepared for this study, since the addition of the His-tag could influence enzyme activity. The activity of β-gal was determined using the ONPG activity assay. The kinetic parameters (Km and Vmax) were determined using the Michaelis Menten equation and Graphpad Prism® version 5 software for Windows, Graphpad Software, La Jolla Calif. USA.

[4] = Competitive activity assay (lactose as inhibitor, ONPG as substrate); assay type: biochemical; settings: for Vmax: ONPG with lactose 6, 16 and 60 mM as competitive inhibitor; for pKi: competitive inhibition by lactose, ONPG as substrate
Experimental: The protocol for the above activity assay was repeated, but with the addition of lactose as an inhibitor. Lactose was added to final concentration of 6, 16 and 60 mM respectively.
The assay for the activity of β-gal, with lactose as substrate, is relatively complex and generally requires the use of HPLC. It was therefore decided to use a competitive activity assay instead. Lactose was therefore added together with ONPG to determine if the expressed enzymes did have an affinity for the natural substrate. Lactose would compete for the active site with ONPG and therefore the greater the inhibition the higher the affinity of lactose for that particular active site.
The results obtained were analysed with the aid of Michaelis Menten plots and the Ki values for lactose were determined using Graphpad Prism® version 5 for Windows, Graphpad Software, La Jolla Calif. USA.

[5] = Adsorption of β-gal onto Dynabeads (HIPD), BCA protein determination; assay type: binding; settings: room temperature, optimal concentration
Experimental: To determine the amount (μg) of β-gal that was bound to Dynabeads® (HIPD), a BCA protein assay was performed according to the manufacturer's protocol. A standard curve with BSA was established in a range from 0 to 2 mg/ml. The analysis was performed at 540 nm.
A dilution series of purified β-gal wildtype and E537D mutant was prepared in a concentration range from 0 to 0.4 mg/ml. The dilution series was incubated with the beads (25 μl) for 10 min at 25° C. according to the manufacturer's protocol to ensure optimal adsorption of β-gal onto the beads. The beads were subsequently separated from the solution with a magnet and the supernatant was removed and analysed as described immediately above. The beads were then washed three times in dialysis buffer and the supernatant of the wash steps were also analysed for protein content.
The experimental procedure described above was repeated at 4 and 37° C.
Purified β-gal (wildtype and E537D mutant), was incubated with the beads (25 μl) at room temperature and optimal concentration to ensure maximum binding. The supernatant was removed from the solution at regular time intervals for 10 min. The collected fractions were assayed for protein content as described above. Analysis of β-gal bound to the beads took place with SDS-PAGE and Western blot analyses as outlined above.

[6] = ONPG activity assay of immobilised wildtype β-gal; assay type: biochemical; settings: immobilised on Dynabeads, ONPG as substrate
Experimental: as §1
70 μg β-gal (both E537D mutant and wildtype) were incubated for 10 min at 25° C. on a Vortex Genie 2 mixer (Healthcare technologies, South Africa) with 25 μl Dyanbeads® (HIPD). The immobilised β-gal was collected with the use of a magnet and the residual supernatant was removed for protein analysis. The beads were then washed three times and the wash supernatant was also kept and analysed for protein content.
The activity of the immobilized wildtype β-gal was determined with an ONPG activity assay as described earlier.

hydrolysis of lactose during the binding experiment [1]	hydrolysis of lactose to glucose ([1]; incubation 20 min)	hydrolysis of lactose to glucose ([1]; incubation an hour (60 min))	percentage binding of 14C lactose from solution [2]	pKi [4]	percentage binding of 14C lactose from solution ([2]; listed as immobilised wildtype enzyme)	Substance	hydrolysis of lactose to glucose ([1]; incubation three hours)	activity lower/slower than the wildtype β-gal ([3]; ONPG activity, Vmax ratio)	Vmax ([3]; ONPG as substrate (FIG. 19 B legend))	Km ([3]; ONPG as substrate, 37° C.)	Vmax ([3]; ONPG as substrate, 37° C.)	Vmax [4]	incubation time for maximum adsorption [5]	Vmax ([3]; ONPG as substrate)	Km [6]	Vmax [6]
the lactose had not been hydrolysed	relatively small glucose peak appeared	glucose peak had increased significantly	approximately 15%			immobilised E537D mutant β-gal: His-tagged E537D mutant β-gal immobilised on Dynabeads (HIPD) cobalt magnetic beads	majority of the substrate had been converted to glucose									
				1.72		E537D mutant: N-terminal His-tagged E. coli β-galactosidase with Glu537 replaced by Asp		115 ×	2 μmol/min/protein	270 µM	2 μmol/min/mg protein	2 µmol/min/mg	5 min			
				1.91		wildtype β-gal: N-terminal His-tagged wildtype E. coli β-galactosidase (lacZ product), expressed and IMAC purified [reference compound]				220 µM	230 μmol/min/mg protein	230 µmol/min/mg	5 min	230 µmol/min/mg		
hydrolysed the lactose completely			not able to bind lactose		approximately 2%	immobilised wildtype β-gal: His-tagged wildtype β-gal immobilised on Dynabeads (HIPD) cobalt magnetic beads									1530 µM	135 µmol/min/mg
